Laboratory results: PubChem BioAssay (NCI)
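1) Cells in 96-well plates. 2) Compound, 48 h, 5 concentrations. 3) Linear interpolation between surrounding doses. 4) Unreached endpoint = highest concentration. TGI marks complete inhibition of growth.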

Experiments:
Assay in all cases: inhibition of tumour cell growth, NCI panel, 48 h
[1] = test system: SNB-19 CNS
[2] = test system: LOX IMVI melanoma
[3] = test system: EKVX NSCLC
[4] = test system: M14 melanoma
[5] = test system: DU-145 prostate
[6] = test system: SK-MEL-2 melanoma
[7] = test system: IGROV1 ovarian
[8] = test system: UACC-62 melanoma
[9] = test system: SR leukemia
[10] = test system: CCRF-CEM leukemia
[11] = test system: TK-10 renal
[12] = test system: UACC-257 melanoma
[13] = test system: MDA-MB-435
[14] = test system: RXF 393 renal
[15] = test system: NCI-H460 lung
[16] = test system: HL-60(TB) leukemia
[17] = test system: HCC-2998 colon
[18] = test system: CAKI-1 renal
[19] = test system: T-47D breast

SMILES	TGI [1] [µM]	TGI [2] [µM]	TGI [3] [µM]	TGI [4] [µM]	TGI [5] [µM]	TGI [6] [µM]	TGI [7] [µM]	TGI [8] [µM]	TGI [9] [µM]	TGI [10] [µM]	TGI [11] [µM]	TGI [12] [µM]	TGI [13] [µM]	TGI [14] [µM]	TGI [15] [µM]	TGI [16] [µM]	TGI [17] [µM]	TGI [18] [µM]	TGI [19] [µM]
CC(C)CC1[C@@H](OCc2ccccc2)COS(=O)N1Cc1ccccc1 (stereo partly drawn)	> 100	> 100	> 100	> 100	> 100	> 100	> 100	> 100	73.1	> 100	> 100	> 100	> 100						
COc1cc2c(cc1OC)C(O)[C@H](Br)C(C)(C)O2 (stereo partly drawn)	> 100	> 100	> 100	> 100		> 100	> 100	> 100	> 100	> 100	> 100	> 100		> 100	> 100	> 100	> 100		
Cc1cccc(NC(=O)/C=C/c2ccc(N(CCC#N)CCC#N)cc2C)c1	> 100	> 100	> 100	> 100		> 100	> 100	> 100		> 100	> 100	> 100			> 100	> 100	> 100	> 100	
Clc1ccc(-c2c(C3=NCCN3)nnn2-c2ccc(Cl)cc2)cc1	> 100	> 100	> 100	31.7		26.1	> 100	32.7	35.1	73	69.7	33		75.8	> 100	39.1	33.6	> 100	
O=[N+]([O-])c1ccc(-n2nnc(C3=NCCCN3)c2-c2ccc(Cl)cc2)cc1	> 100	> 100	> 100	> 100		> 100	> 100	> 100	> 100	> 100	> 100	> 100		> 100	> 100	> 100	> 100	> 100	
N#CC1Nc2ccccc2[C@@H](O)C1O (stereo partly drawn)		> 100	> 100	> 100	> 100	> 100	> 100	> 100	> 100	> 100	> 100	> 100	> 100	> 100	> 100	> 100	> 100	> 100	> 100
N#C/C(=C\c1ccc(O)c(O)c1)C(N)=O	> 100		> 100	> 100		> 100	> 100	> 100		37.7	> 100	> 100		51.6	> 100	23.9	> 100	> 100	
CCOC(=O)C1=C(Nc2cccc(OC)c2)OCC1=O	> 100	> 100	> 100	> 100	> 100	> 100	> 100	> 100	> 100	> 100	> 100	> 100	> 100	> 100	> 100	> 100	> 100	> 100	> 100
Nc1ccc(C(=O)NN2C(=O)C(Cl)C2c2ccccc2Cl)cc1 (stereo not drawn)	30.6	2.9	31.7	25.9		24.5	26.4	20.8	31.9	6.67	30.1	26.8		20.1	16.5		30.1	26.9	
Cc1ccc2c(c1CCCC(C)(C)O)C(=O)C(=O)C(C(C)C)=C2O	> 100		> 100	> 100		> 100	> 100		> 100	> 100	> 100			> 100	> 100	> 100	> 100	> 100	
COc1ccccc1NC(=O)C1=C(C)NC(C)=C(C(=O)Nc2ccccc2OC)C1c1ccc([N+](=O)[O-])cc1	> 100	> 100	> 100	> 100		> 100	> 100	> 100	> 100	> 100	> 100	> 100		> 100	> 100	> 100		> 100	
Cc1cn2c(=O)c3ccccc3nc2s1	> 100	> 100	> 100	> 100		> 100	> 100	> 100	> 100	> 100	> 100	> 100		> 100	> 100	> 100	> 100	> 100	
COC(=O)C12C3C4C5(C(=O)OC)C(C1C35C(=O)N(C(C)C)C(C)C)C42C(=O)N(C(C)C)C(C)C (stereo not drawn)	> 50	> 43.6	> 50	> 50		> 50	> 50	> 50	> 50	> 50	> 50	> 50		> 50	> 50	> 50	> 50	> 50	
O=C(CCC/C(CC(=O)c1ccc(Br)cc1)=N\O)Nc1ccccc1	> 100	> 100	> 100	> 100		> 100	> 100	> 100		> 100	> 100	> 100		> 100	> 100	> 100	> 100		
O=C(CN1CCCCC1)N1CCc2c([nH]c3ccccc23)C1c1cccnc1 (stereo not drawn)	> 100	> 100	> 100	> 100			> 100	> 100		> 100	> 100	> 100		> 100	> 100	> 100	> 100	> 100	
